Entries after “also recorded” stand apart in the source; their conditions may differ.
Experiments:
Assay type in all cases: physicochemical
[1] = Competitive slurries of anhydrous and hydrated forms in different water activity
Experimental: Competitive slurries of the anhydrous and hydrated forms in different water activity at 50° C. and 5° C. were used to determine the thermodynamic stability relationships.

[2] = Thermodynamic aqueous solubility; details: water, after 24 hours equilibration
Experimental: Aqueous solubility was determined by suspending sufficient compound in 0.5 ml deionized water to give a maximum final concentration of 40 mg/mi of the parent free-form of the compound. The suspension was equilibrated at 25° C., on a Heidolph plate shaker set to 750 rpm for 24 hours. After equilibration, the appearance was noted and the pH of the saturated solution was measured. Samples forming suspensions were centrifuged for 4 min at 13,500 rpm. Samples were then filtered through a glass fiber C filter (particle retention 1.2 μm), before dilution with H2O as appropriate.
Quantitation was by HPLC (see Table 2 for parameters) with reference to a standard solution of approximately 0.15 mg/ml in DMSO. Different volumes of the standard, diluted and undiluted sample solutions were injected. The solubility was calculated using the peak areas determined by integration of the peak found at the same retention time as the principal peak in the standard injection. Analysis was performed on an AgilentHPl 100/Infinity II 1260 series system equipped with a diode array detector and using OpenLAB software.

[3] = Static storage stability at elevated temperature/humidity (XRPD, HPLC purity)
Experimental: XRPD diffractograms were collected on a Bruker D8 diffractometer using Cu Kα, radiation (40 kV, 40 mA) and a 0-20 goniometer fitted with a Ge monochromator. The incident beam passes through a 2.0 mm divergence slit followed by a 0.2 mm anti-scatter slit and knife edge. The diffracted beam passes through an 8.0 mm receiving slit with 2.5° Soller slits followed by the Lynxeye Detector. The software used for data collection and analysis was Diffrac Plus XRD Commander and Diffrac Plus EVA respectively.
XRPD diffractograms were collected on a PANalytical Empyrean diffractometer using Cu Kα, radiation (45 kV, 40 mA) in transmission geometry. A 0.5° slit, 4 mm mask and 0.04 rad Soller slits with a focusing mirror were used on the incident beam. A PIXcel3D detector, placed on the diffracted beam, was fitted with a receiving slit and 0.04 rad Soller slits. The software used for data collection was X'Pert Data Collector using X'Pert Operator Interface. The data were analyzed and presented using Diffrac Plus EVA or HighScore Plus.
Purity analysis was performed on an AgilentHP1100/Infinity 111260 series system equipped with a diode array detector and using OpenLAB software.

[4] = Gravimetric Vapour Sorption (GVS)
Experimental: Sorption isotherms were obtained using a SMS DVS Intrinsic moisture sorption analyser, controlled by DVS Intrinsic Control software. The sample temperature was maintained at 25° C. by the instrument controls. The humidity was controlled by mixing streams of dry and wet nitrogen, with a total flow rate of 200 ml/min. The relative humidity was measured by a calibrated Rotronic probe (dynamic range of 1.0-100% RH), located near the sample. The weight change, (mass relaxation) of the sample as a function of % RH was constantly monitored by a microbalance (accuracy ±0.005 mg). Typically, 20-30 mg of sample was placed in a tared mesh stainless steel basket under ambient conditions. The sample was loaded and unloaded at 40% RH and 25° C. (typical room conditions). A moisture sorption isotherm was performed as outlined below (2 scans per complete cycle). The standard isotherm was performed at 25° C. at 10% RH intervals over a 0-90% RH range. Typically, a double cycle (4 scans) was carried out. Data analysis was carried out within Microsoft Excel using the DVS Analysis Suite. [table]

[5] = physchem; details: thermodynamic from solid
Source text: There was insufficient residue to characterize these further.

[6] = 7 days / 1 week at 25° C./97% RH
[7] = 7 days / 1 week at 40° C./75% RH

O=C(NO)c1cnc(N2C[C@@H]3[C@H](C2)[C@H]3NCc2ccc3cc(F)ccc3n2)nc1 [Mesylate Form 1, N-hydroxy 2-{6-[(6-fluoro-quinolin-2-ylmethyl)-amino]-3-aza-bicyclo[3.1.0]hex-3-yl}pyrimidine-5-carboxamide]
Water activity up to which the form was the most stable ([1]; competitive slurries at 5° C.): ≥ 0.3 aw | Water activity up to which the form was the most stable ([1]; competitive slurries at 50° C.): 0.6 aw | pH of saturated solution [2]: (pH = 3.2) | Purity after static storage ([3]; 14 weeks at 25° C./97% RH): 93.5% | Solid form by XRPD after static storage ([3]; 14 weeks at 25° C./97% RH): Mesylate Form 1 | Purity after static storage ([3]; 14 weeks at 40° C./75% RH): Form 2 (94.7% purity) | HPLC purity after static storage [3, 6]: no significant drop in purity | Solid form by XRPD after static storage [3, 6]: unchanged; also recorded: No change, Mesylate Form 1 | HPLC purity after static storage [3, 7]: no significant drop in purity | Solid form by XRPD after static storage [3, 7]: unchanged; also recorded: No change, Mesylate Form 1 | Hygroscopicity by GVS ([4]; 25° C.): RH: Slightly hygroscopic. | XRPD post-GVS ([4]; residue after GVS): no change; also recorded: XRPD remains unchanged | solubility thermodynamic ([5]; fassgf or other biorelevant, Thermodynamic solubility in FaSSGF): 21000 µg/mL | solubility thermodynamic ([5]; fassif, Thermodynamic solubility in FaSSIF): 1900 µg/mL | solubility thermodynamic ([5]; fessif, Thermodynamic solubility in FeSSIF): 340 µg/mL
